{
  "source": "patent EP4740947A1",
  "about": "“PHARMACEUTICAL COMBINATION OF EGFR KINASE INHIBITOR AND C-MET KINASE INHIBITOR FOR TREATING TUMOR DISEASES” (Jiangsu AoSaiKang Pharmaceutical Co., Ltd., priority 2023, dated 2025)",
  "system": "LD1-0025-200662 human lung cancer tissue",
  "test": "Efficacy study in patient derived xenograft (PDX) tumor model established with LD1-0025-200662 human lung cancer tissue",
  "type": "in vivo, NU/NU mice",
  "conditions": "for Complete tumor regression (%): rate of mice, observed by naked eyes on day 21; for T/C% Day 21: relative tumor proliferation rate; for T/C (%) (tumor weight): tumor weight vs vehicle",
  "description": "NU/NU mice were subcutaneously inoculated with human lung cancer tissue LD1-0025-200662 to establish an in-vivo xenograft tumor model, and then the efficacy of the test drugs ASK-MET alone, ASK-EGFR alone, ASK-MET+ASK-EGFR in combination and RefT+ ASK-EGFR in combination in the model were evaluated.\nLD1-0025-200662 (see Table 8), a patient derived human lung cancer tissue, was sub-cultured to FP3+3 passages for this efficacy test. Table 8. Xenograft tumor model\nNU/NU mice, female, age: 42-62 days, weight: 18-22 g, purchased from Zhejiang Vital River Laboratory Animal Technology Co., Ltd. (Production license: SCXK(Zhe)2019-0001).\n• Vehicle: 20% solutol/80% 100 mM sodium acetate buffer pH 5.5; • ASK-MET: hydrochloride of the compound of Formula (II), prepared with 20% solutol/80% 100 mM sodium acetate buffer pH 5.5, concentration: 0.1 mg/mL, 0.3 mg/mL; • ASK-EGFR: compound of Formula (I), prepared with 0.5% sodium carboxymethyl cellulose solution (0.5%CMC-Na), concentration: 2 mg/mL; • RefT: prepared with 20% solutol/80% 100 mM sodium acetate buffer pH 5.5, concentration: 0.3 mg/mL; RefT is a small-molecule MET kinase inhibitor approved by USFDA.\nImmunodeficient mice were subcutaneously inoculated with LD1-0025-200662 tumor tissue, and observed continuously till tumor formation. When the tumor volume reached about 1000 mm^3, the tumor tissue was peeled off and cut into tumor tissue with a size of about 3 mm × 3 mm × 3 mm (about 50-90 mg), and inoculated subcutaneously in NU/NU mice. The inoculated mice were observed and the growth of tumor was monitored. When the average tumor volume of tumor-bearing mice reached 193.40 mm^3, the mice were randomly divided into groups, administered and observed. The tumor volume and weight of all tumor-bearing mice were measured before grouping, and the tumor-bearing mice were randomly grouped according to the measured tumor volume. According to the principle of random block design, the mice were first divided into blocks according to the tumor volume, and then the mice in each block were randomly assigned to each treatment group. Table 9. Administration and treatment\n5.1 Measurement of tumor volume and weight of tumor-bearing mice: The measurement was made twice a week by using a vernier caliper, and the tumor volume was calculated by a formula V = 0.5 × a × b^2, where a and b were respectively the major and minor diameters of the tumor.\n5.2 Tumor growth inhibition TGI (%)= [1-(Ti-T0) / (Vi-V0)] × 100, where Ti-T0>0; TGI (%) = [1-(Ti-T0)/ T0] × 100, where Ti-T0<0. T0 was the average tumor volume at the first administration in the treatment group, Ti was the average tumor volume at a certain measurement after administration in the treatment group, V0 was the average tumor volume at the first administration in the vehicle control group, and Vi was the average tumor volume at a certain measurement after administration in the vehicle control group.\n5.3 Relative tumor proliferation rate T/C (%): The calculation formula is as follows: T/C % = TRTV / CRTV × 100 % (TRTV: RTV of the treatment group; CRTV: RTV of the negative control group). According to the results of tumor measurement, the relative tumor volume (RTV) was calculated by a formula RTV = Vt / V0, where V0 was the average tumor volume measured at the time of grouping for administration (that is, d0), Vt was the average tumor volume measured at a certain measurement, and TRTV and CRTV data of the same day was used.\n5.4 Synergistic effect in combined treatment group: Jin's formula Q=E(a+b)/[Ea+Eb-Ea × Eb], where Ea was TGI of a drug alone, and Q value>1 reflected that drug combination has a synergistic effect.\n5.5 After the experiment, the tumor was stripped, weighed and photographed. T/Cweight%= Tweight /Vweight × 100%, where Tweight was the average tumor weight of the compound group at the end of the experiment, and Vweight was the average tumor weight of the vehicle control group at the end of the experiment.\nAll data is expressed as Mean±SEM. […]",
  "key": {"[1]": {"conditions": "ASK-MET 1 mg/kg p.o. QD×(D0-D7) (G3)"}, "[2]": {"conditions": "ASK-MET 3 mg/kg p.o. QD×(D0-D7) (G4)"}, "[3]": {"conditions": "Day 21, ASK-MET 1 mg/kg p.o. QD×(D0-D7) (G3)"}, "[4]": {"conditions": "Day 21, ASK-MET 3 mg/kg p.o. QD×(D0-D7) (G4)"}, "[5]": {"conditions": "ASK-EGFR 20 mg/kg p.o. QD×21 (G2)"}, "[6]": {"conditions": "Day 21, ASK-EGFR 20 mg/kg p.o. QD×21 (G2)"}},
  "note": "Several values for one entry are separate records, joined by “and”; a condition that tells them apart may be missing. Equal entries are not always repeated.",
  "data": [
    {"smiles": "CC(C)(O)CN1CCC(COc2cnc(-c3cccc(Cn4c(=O)ccn5c6cc(C#N)ccc6nc45)c3)nc2)CC1", "note": "[ASK-MET]", "values": [
      {"measurement": "complete tumor regression of tumor-bearing mice (in words)", "setting": "ASK-MET 1 mg/kg (G3)", "result": "varying degrees of complete tumor regression"},
      {"measurement": "inhibition on the growth of subcutaneous xenograft tumor", "setting": "ASK-MET 1 mg/kg (G3)", "result": "statistically significant inhibition"},
      {"measurement": "complete tumor regression of tumor-bearing mice (in words)", "setting": "ASK-MET 3 mg/kg (G4)", "result": "varying degrees of complete tumor regression"},
      {"measurement": "inhibition on the growth of subcutaneous xenograft tumor", "setting": "ASK-MET 3 mg/kg (G4)", "result": "statistically significant inhibition"},
      {"measurement": "Tumor volume (mm^3) (Mean ± SEM) Day 0", "setting": "[1]", "result": "168.78±15.38", "unit": "mm^3"},
      {"measurement": "Tumor volume (mm^3) (Mean ± SEM) Day 0", "setting": "[2]", "result": "170.65±12.40", "unit": "mm^3"},
      {"measurement": "Tumor volume (mm^3) (Mean ± SEM) Day 21", "setting": "[3]", "result": "116.01±35.11", "unit": "mm^3"},
      {"measurement": "Tumor weight (g) (Mean ± SEM) Day 21 after treatment", "setting": "[3]", "result": "0.12 ± 0.04", "unit": "g"},
      {"measurement": "TGI% Day 21", "setting": "Day 21, ASK-MET 1 mg/kg p.o. QD×(D0-D7) (G3), above 100 = regression by formula of b100", "result": 131.27, "unit": "%"},
      {"measurement": "Tumor volume (mm^3) (Mean ± SEM) Day 21", "setting": "[4]", "result": "3.54±2.35", "unit": "mm^3"},
      {"measurement": "Tumor weight (g) (Mean ± SEM) Day 21 after treatment", "setting": "[4]", "result": "0.01 ± 0.00", "unit": "g"},
      {"measurement": "TGI% Day 21", "setting": "Day 21, ASK-MET 3 mg/kg p.o. QD×(D0-D7) (G4), above 100 = regression by formula of b100", "result": 197.93, "unit": "%"},
      {"measurement": "Complete tumor regression (%)", "setting": "[1]", "result": "12.5% and 12.5 (1/8) %"},
      {"measurement": "Complete tumor regression (%)", "setting": "[2]", "result": "75% and 75 (6/8) %"},
      {"measurement": "T/C% Day 21", "setting": "[3]", "result": 9.27, "unit": "%"},
      {"measurement": "T/C% Day 21", "setting": "[4]", "result": 0.28, "unit": "%"},
      {"measurement": "T/C (%) (tumor weight)", "setting": "[3]", "result": 9.18, "unit": "%"},
      {"measurement": "T/C (%) (tumor weight)", "setting": "[4]", "result": 0.39, "unit": "%"}
    ]},
    {"smiles": "C=CC(=O)Nc1cc(Nc2ncc(Cl)c(Nc3ccc4ccccc4c3)n2)c(OC)cc1N(C)CCN(C)C", "note": "[ASK-EGFR, N-((5-((5-chloro-4-((naphthalen-2-yl)amino))pyrimidin-2-yl)amino)-2-((N-methyl-N-dimethylaminoethyl)amino)-4-methoxyphenyl) acrylamide]", "values": [
      {"measurement": "Tumor volume (mm^3) (Mean ± SEM) Day 0", "setting": "[5]", "result": "169.31±14.43", "unit": "mm^3"},
      {"measurement": "Tumor volume (mm^3) (Mean ± SEM) Day 21", "setting": "[6]", "result": "1239.58±146.6", "unit": "mm^3"},
      {"measurement": "Tumor weight (g) (Mean ± SEM) Day 21 after treatment", "setting": "[6]", "result": "1.19 ± 0.16", "unit": "g"},
      {"measurement": "TGI% Day 21", "setting": "Day 21 vs vehicle, ASK-EGFR 20 mg/kg p.o. QD×21 (G2)", "result": 1.96, "unit": "%"},
      {"measurement": "Complete tumor regression (%)", "setting": "[5]", "result": "0.00% and 0 (0/8) %"},
      {"measurement": "T/C% Day 21", "setting": "[6]", "result": 98.77, "unit": "%"},
      {"measurement": "T/C (%) (tumor weight)", "setting": "[6]", "result": 93.41, "unit": "%"}
    ]}
  ]
}
